According to US5644053A, “Penam derivatives” (Hoffmann-La Roche Inc., priority 1994, dated 1997):
Read-outs that look alike come from different tables or passages of the source.

Legend:
β-lactamase [1] = format: biochemical; conditions: read-out: IC50 E. coli CF 102 (β-lactamase inhibition)
Experimental: Various β-lactamases can be isolated from penicillin- or cephalosporin-resistant bacterial strains such as Klebsiella pneumonia NCTC 418, Proteus vulgaris 1028, Bacillus licheniformis 749/C, Escherichia coil SN01 and Citrobacter freundii 1203. For this purpose, the corresponding strains are cultivated in Tryptic Soy Broth (Difco) and harvested by centrifugation in the last logarithmic growth phase (when necessary 50-100 mg/l of ampicillin are added to the medium towards the end of the log-phase in order to induce the β-lactamase). The thus-obtained bacterial mass is treated with 20 mM Tris-HCl buffer (pH 7.0); the cells are broken open with a French press while cooling. The mixture is centrifuged (20,000 r/min.) for 20-30 minutes and a clear crude extract is obtained.
(§4) The determination of the activity of the isolated β-lactamases can be carried out according to the method of O'-Callaghan, C. […] The requisite test batch contains per ml of water: 50 mM phosphate buffer (pH 7.0), 0.1 mM nitrocefin and sufficient enzyme (β-lactamase) to achieve a ΔA/min. of about 0.1.
(§5) The determination of the IC50 was effected by means of a graph.

β-lactamase [2] = target: β-lactamase (Citrobacter freundii, UniProt P05193); conditions: read-out: IC50 C. freundii 1982 (β-lactamase inhibition)
Experimental: For this purpose, the corresponding strains are cultivated in Tryptic Soy Broth (Difco) and harvested by centrifugation in the last logarithmic growth phase (when necessary 50-100 mg/l of ampicillin are added to the medium towards the end of the log-phase in order to induce the β-lactamase). The thus-obtained bacterial mass is treated with 20 mM Tris-HCl buffer (pH 7.0); the cells are broken open with a French press while cooling. The mixture is centrifuged (20,000 r/min.) for 20-30 minutes and a clear crude extract is obtained.
as §4, §5

E. coli = assay: In vitro activity of combinations with selected antibiotics against β-lactamase over-producer strains, E. coli; format: cell-based; conditions: β-lactamase over-producer strain; combinations: constant inhibitor concentration 4 mg/l; unit assumed
Experimental: (§1) In vitro activity of combinations of Example 5c with selected
(§2) antibiotics against β-lactamase over-producer strains
(§3) (constant inhibitor concentration: 4 mg/l)

E. cloacae = assay: In vitro activity of combinations with selected antibiotics against β-lactamase over-producer strains, E. cloacae; format: cell-based; conditions: β-lactamase over-producer strain; combinations: constant inhibitor concentration 4 mg/l; unit assumed
Experimental: as §1, §2, §3

C. freundii = assay: In vitro activity of combinations with selected antibiotics against β-lactamase over-producer strains, C. freundii; format: cell-based; conditions: β-lactamase over-producer strain; combinations: constant inhibitor concentration 4 mg/l; unit assumed
Experimental: as §1, §2, §3

Ps. aeruginosa = assay: In vitro activity of combinations with selected antibiotics against β-lactamase over-producer strains, Ps. aeruginosa; format: cell-based; conditions: β-lactamase over-producer strain; combinations: constant inhibitor concentration 4 mg/l; unit assumed
Experimental: as §1, §2, §3

[3] = isolated enzyme, nitrocefin substrate, pH 7.0, 37° C., 15 min pre-incubation

β-lactamase (Citrobacter freundii, UniProt P05193), sequence (P05193 21-381): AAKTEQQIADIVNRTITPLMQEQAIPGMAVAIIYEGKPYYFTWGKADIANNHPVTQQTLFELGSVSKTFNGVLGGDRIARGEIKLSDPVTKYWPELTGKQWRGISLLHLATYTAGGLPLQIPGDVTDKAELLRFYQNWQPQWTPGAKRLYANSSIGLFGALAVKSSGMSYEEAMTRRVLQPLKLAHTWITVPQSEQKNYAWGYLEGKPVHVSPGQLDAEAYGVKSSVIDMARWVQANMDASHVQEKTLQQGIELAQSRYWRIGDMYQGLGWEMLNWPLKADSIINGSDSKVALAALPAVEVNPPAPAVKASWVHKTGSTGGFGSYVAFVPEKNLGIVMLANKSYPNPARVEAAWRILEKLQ

Row | SMILES | IC50 (β-lactamase [1]; pH 7) [nM] | MIC E. coli (E. coli) [µg/mL] | MIC E. cloacae (E. cloacae) [µg/mL] | MIC C. freundii (C. freundii) [µg/mL] | MIC Ps. aeruginosa (Ps. aeruginosa) [µg/mL] | further results
1 | CCOC(=O)/C=C/[C@@]1(C)[C@H](C(=O)O)N2C(=O)C[C@H]2S1(=O)=O [2c (trans ethyl ester), Sodium (E)-(2S,3S,5R)-3-(2-ethoxycarbonyl-vinyl)-3-methyl-4,4,7-trioxo-4-thia-1-aza-bicyclo[3.2.0]heptane-2-carboxylate] | 456 |  |  |  |  | 
2 | C[C@]1(/C=C\C#N)[C@H](C(=O)O)N2C(=O)C[C@H]2S1(=O)=O [5c (cis nitrile), Sodium (Z)-(2S,3S,5R)-3-(2-cyanoethenyl)-3-methyl-4,4,7-trioxo-4-thia-1-aza-bicyclo [3.2.0]heptane-2-carboxylate] | 126 |  |  |  |  | 
3 | C[C@]1(/C=C/C#N)[C@H](C(=O)O)N2C(=O)C[C@H]2S1(=O)=O [5c (trans nitrile), Sodium (E)-(2S,3S,5R)-3-(2-cyanoethenyl)-3-methyl-4,4,7-trioxo-4-thia-1-aza-bicyclo[3.2.0]heptane-2-carboxylate] | 681 |  |  |  |  | 
4 | C[C@]1(/C=C\C(N)=O)[C@H](C(=O)O)N2C(=O)C[C@H]2S1(=O)=O [6c (cis amide), Sodium (Z)-(2S,3S,5R)-3-(2-carbamoyl-vinyl)-3-methyl-4,4,7-trioxo-4-thia-1-aza-bicyclo[3.2.0]heptane-2-carboxylate] | 130 |  |  |  |  | IC50 (β-lactamase [2]; [3]): 4340 nM
5 | C[C@]1(/C=C/C(N)=O)[C@H](C(=O)O)N2C(=O)C[C@H]2S1(=O)=O [6c (trans amide), Sodium (E)-(2S,3S,5R)-3-(2-carbamoyl-vinyl)-3-methyl-4.4.7-trioxo-4-thia-1-azabicyclo[3.2.0]heptane-2-carboxylate] |  |  |  |  |  | IC50 (β-lactamase [1]; [3]): 54 nM; IC50 (β-lactamase [2]; [3]): 2250 nM
6 | CC1(C)S[C@@H]2[C@H](NC(=O)[C@H](NC(=O)c3cnc4cccnc4c3O)c3ccccc3)C(=O)N2[C@H]1C(=O)O [Apalcillin] |  | > 64 | > 128 | > 128 | 64 | 
7 | CC(C)(O/N=C(\C(=O)N[C@@H]1C(=O)N2C(C(=O)[O-])=C(C[n+]3ccccc3)CS[C@H]12)c1csc(N)n1)C(=O)O [Ceftazidime] |  | 32 | > 64 | > 64 | 32 | 
8 | CO/N=C(\C(=O)N[C@@H]1C(=O)N2C(C(=O)O)=C(CSc3nc(=O)c(=O)[nH]n3C)CS[C@H]12)c1csc(N)n1 [Ceftriaxone] |  | 16 | > 64 | 64 | > 64 | 
9 | CCN1CCN(C(=O)N[C@@H](C(=O)N[C@@H]2C(=O)N3[C@@H]2SC(C)(C)[C@@H]3C(=O)O)c2ccccc2)C(=O)C1=O [Piperacillin] |  | > 64 | > 128 | > 128 | > 64 | 
10 | C[C@]1(Cn2ccnn2)[C@H](C(=O)O)N2C(=O)C[C@H]2S1(=O)=O [Tazobactam] |  |  |  |  |  | IC50 (β-lactamase [1]; [3]): 15 nM; IC50 (β-lactamase [2]; pH 7): 900 nM
